# ChEMBL document CHEMBL3885881, “DrugMatrix”
# Species on record: Rattus norvegicus
# Type: toxicity, organism-based, Sprague-Dawley
# Conditions: in vivo, ip, 24 h, route intraperitoneal, time 1 day, vehicle .1 % RSA/SALINE
# [1] = 0 mg/kg, vehicle control, tissue Blood, dose level Control
# [2] = 0 mg/kg, vehicle control, tissue Plasma, dose level Control
# [3] = […], tissue Blood, dose 0.25 mg/Kg, dose level High
# [4] = […], tissue Plasma, dose 0.25 mg/Kg, dose level High
# Description: DrugMatrix - Regimen: Single
substance,measurement,setting,value
"TNF-ALPHA, RAT",ABSOLUTE EOSINOPHIL,[1],109.33 CELLS/uL
same,ABSOLUTE LYMPHOCYTE,[1],13180.67 CELLS/uL
same,ABSOLUTE MONOCYTE,[1],354 CELLS/uL
same,ABSOLUTE SEGMENTED NEUTROPHIL,[1],1756 CELLS/uL
same,BASOPHIL,[1],0%
same,EOSINOPHIL,[1],0.67%
same,ERYTHROCYTE COUNT,[1],5.38 x10E6/uL
same,HEMOGLOBIN,[1],12.57 G/DL
same,LEUKOCYTE COUNT,[1],15.4 x10E3/uL
same,LYMPHOCYTE,[1],85%
same,MEAN CORPUSCULAR HEMOGLOBIN,[1],23.37 pg
same,MEAN CORPUSCULAR HEMOGLOBIN CONCENTRATION,[1],38.3 G/DL
same,NEUTROPHIL,[1],12%
same,NUCLEATED RED BLOOD CELLS,[1],0 /100WBC
same,PLATELET COUNT,[1],832.33 x10E3/uL
same,ALANINE AMINOTRANSFERASE,[2],37.33 u/L
same,ALBUMIN,[2],4 G/DL
same,ALKALINE PHOSPHATASE,[2],344.67 u/L
same,ASPARTATE AMINOTRANSFERASE,[2],69.33 u/L
same,BLOOD UREA NITROGEN,[2],13.67 mg/dL
same,CARBON DIOXIDE,[2],28.33 mmol/L
same,CHLORIDE,[2],99.67 MEQ/L
same,CHOLESTEROL,[2],73.67 mg/dL
same,CREATINE PHOSPHOKINASE,[2],270 u/L
same,CREATININE,[2],0.19 mg/dL
same,GLUCOSE,[2],176.33 mg/dL
same,LACTATE DEHYDROGENASE,[2],160 u/L
same,PHOSPHORUS,[2],13.47 mg/dL
same,POTASSIUM,[2],6.77 MEQ/L
same,TOTAL BILIRUBIN,[2],0.13 mg/dL
same,TOTAL PROTEIN,[2],6.07 G/DL
same,URIC ACID,[2],1.87 mg/dL
same,ABSOLUTE EOSINOPHIL,[3],57.67 CELLS/uL
same,ABSOLUTE LYMPHOCYTE,[3],13018 CELLS/uL
same,ABSOLUTE MONOCYTE,[3],366 CELLS/uL
same,ABSOLUTE SEGMENTED NEUTROPHIL,[3],1925 CELLS/uL
same,BASOPHIL,[3],0%
same,EOSINOPHIL,[3],0.33%
same,ERYTHROCYTE COUNT,[3],5.31 x10E6/uL
same,HEMATOCRIT,[3],32.37%
same,HEMOGLOBIN,[3],12.23 G/DL
same,LEUKOCYTE COUNT,[3],15.37 x10E3/uL
same,LYMPHOCYTE,[3],85%
same,MEAN CORPUSCULAR HEMOGLOBIN,[3],23.03 pg
same,MEAN CORPUSCULAR HEMOGLOBIN CONCENTRATION,[3],37.8 G/DL
same,MEAN CORPUSCULAR VOLUME,[3],60.97 fL
same,NEUTROPHIL,[3],12.33%
same,NUCLEATED RED BLOOD CELLS,[3],0.33 /100WBC
same,PLATELET COUNT,[3],1023.67 x10E3/uL
same,ALANINE AMINOTRANSFERASE,[4],40 u/L
same,ALKALINE PHOSPHATASE,[4],339.67 u/L
same,ASPARTATE AMINOTRANSFERASE,[4],85.67 u/L
same,BLOOD UREA NITROGEN,[4],13.67 mg/dL
same,CHOLESTEROL,[4],76.33 mg/dL
same,CREATINE PHOSPHOKINASE,[4],860.67 u/L
same,CREATININE,[4],0.21 mg/dL
same,GLUCOSE,[4],158.33 mg/dL
same,LACTATE DEHYDROGENASE,[4],124 u/L
same,PHOSPHORUS,[4],11.93 mg/dL
same,POTASSIUM,[4],6.39 MEQ/L
same,SODIUM,[4],145.63 MEQ/L
same,TOTAL BILIRUBIN,[4],0.2 mg/dL
same,TOTAL PROTEIN,[4],6 G/DL
